# Earlier results as cited in US8771310B2, “Anti-no-reflow guide wire for vascular interventional procedures” (Adenopaint, LLC, priority 2007, dated 2014).
# B1: abciximab: IIb/IIIa platelet inhibitor (antibody, chains of the INN, looked up, V domains shown)
# VH: EVQLQQSGTVLARPGASVKMSCEASGYTFTNYWMHWVKQRPGQGLEWIGAIYPGNSDTSYIQKFKGKAKLTAVTSTTSVYMELSSLTNEDSAVYYCTLYDGYYVFAYWGQGTLVTVSA
# VL: EIVLTQSPVTLSVTPGDSVSLSCRASRDISNNLHWFQQTSHESPRLLIKYASQSMSGIPSRFSGSGSGTDFTLSINSVETEDFGMYFCQQTNSWPYTFGGGTKLEIK
# modifications: Fab
# Columns and labels:
# patients with STEMI = conditions: large intravenous doses
# [1] = test system: patients with stable and unstable angina; conditions: intracoronary infusion or bolus via guide catheter prior to procedure; 24 hours after PCI
# patients undergoing PCI = conditions: preloading 600 mg
# [2] = test system: patients undergoing PCI of SVGs; conditions: PCI of degenerated SVGs
molecule,measurement,setting,value
Nc1ncnc2c1ncn2[C@@H]1O[C@H](CO)[C@@H](O)[C@H]1O [adenosine],cardioprotection with reperfusion therapies,patients with STEMI,cardioprotective affects
same,rise in CK-MB and Troponin after PCI,[1],significantly attenuated the rise
COC(=O)[C@H](c1ccccc1Cl)N1CCc2sccc2C1 [clopidogrel],cell necrosis after PCI,patients undergoing PCI,reduced cell necrosis
B1,MACE at thirty days,[2],failed to reduce MACE at thirty days
